Measurements published in patent publication US8981111B2 (priority 2008, dated 2015).

Assay: log P (HPLC/MS data of the preparation examples)
Conditions: linear gradient 10% to 95% acetonitrile
[1] = LC-MS, method [b]: pH 2.7 with 0.1% formic acid in water and acetonitrile
[2] = method [b]: LC-MS at pH 2.7, 0.1% formic acid in water / acetonitrile

Row | Structure (SMILES) | log p [1] | log p [2]
1 | CC(C)CC(=O)Nc1cccc(CON=C(c2ccccc2)c2cncn2C)n1 [Example 121] | 1.84^[b] | 
2 | CC(C)C(=O)Nc1ccnc(CON=C(c2ccccc2)c2cncn2C)n1 [Example 124] | 1.49^[b] | 
3 | CC(C)C(=O)Nc1cccc(CON=C(c2ccccc2)c2cncn2C)n1 [Example 125] | 1.63^[b] | 
4 | Cn1cncc1C(=NOCc1csc(NC(=O)COc2ccccc2)n1)c1ccccc1 [Example 127] | 2.01^[b] | 
5 | CCCCC(=O)Nc1ccnc(CON=C(c2ccccc2)c2cncn2C)n1 [Example 128] | 1.75^[b] | 
6 | CCCC(=O)Nc1ccnc(CON=C(c2ccccc2)c2cncn2C)n1 [Example 129] | 1.5^[b] | 
7 | CCCCCCC(=O)Nc1ccnc(CON=C(c2ccccc2)c2cncn2C)n1 [Example 130] | 2.2^[b] | 
8 | CCCCCCCCCC(=O)Nc1ccnc(CON=C(c2ccccc2)c2cncn2C)n1 [Example 131] | 2.98^[b] | 
9 | Cn1cncc1C(=NOCc1nccc(NC(=O)COc2ccccc2)n1)c1ccccc1 [Example 132] | 1.86^[b] | 
10 | Cn1ccnc1C(=NOCc1csc(N)n1)c1ccccc1 [Example 133] | 0.75^[b] | 
11 | Cn1ncnc1C(=NOCc1cccc(CNC(=O)CCc2ccccc2)n1)c1ccccc1 [Example 134] | 2.56^[b] | 
12 | CCCCC(=O)NCc1cccc(CON=C(c2ccccc2)c2ncnn2C)n1 [Example 135] | 2.28^[b] | 
13 | CC(C)CC(=O)NCc1cccc(CON=C(c2ccccc2)c2ncnn2C)n1 [Example 136] | 2.23^[b] | 
14 | Cn1ncnc1C(=NOCc1cccc(CNC(=O)C(C)(C)C)n1)c1ccccc1 [Example 137] | 2.28^[b] | 
15 | Cn1ncnc1C(=NOCc1cccc(CNC(=O)Cc2ccccc2)n1)c1ccccc1 [Example 138] |  | 2.44^[b]
16 | CCCCCC(=O)NCc1cccc(CON=C(c2ccccc2)c2ncnn2C)n1 [Example 140] |  | 2.62^[b]
17 | CCCCOC(=O)NCc1cccc(CON=C(c2ccccc2)c2ncnn2C)n1 [Example 141] |  | 2.84^[b]
18 | Cn1nc(C(=NOCc2cccc(N3C(=O)c4ccccc4C3=O)n2)c2ccccc2)n(C)c1=O [Example 142] |  | 2.66^[b]
19 | Cn1cnnc1C(=NOCc1cccc(N2C(=O)c3ccccc3C2=O)n1)c1ccccc1 [Example 144] |  | 2.3^[b]
20 | CCCCCOC(=O)Nc1cccc(CON=C(c2ccccc2)c2nn(C)c(=O)n2C)n1 [Example 146] |  | 3.8^[b]

Row | Structure (SMILES) | log p [1] | log p [2]
21 | Cn1nc(C(=NOCc2cccc(NC(=O)C(C)(C)C)n2)c2ccccc2)n(C)c1=O [Example 147] |  | 2.86^[b]
22 | CC(C)CC(=O)Nc1cccc(CON=C(c2ccccc2)c2nn(C)c(=O)n2C)n1 [Example 148] |  | 2.82^[b]
23 | Cn1nc(C(=NOCc2cccc(NC(=O)Cc3ccccc3)n2)c2ccccc2)n(C)c1=O [Example 149] |  | 2.94^[b]
24 | Cn1nc(C(=NOCc2cccc(NC(=O)CCc3ccccc3)n2)c2ccccc2)n(C)c1=O [Example 150] |  | 3.19^[b]
25 | Cn1nc(C(=NOCc2cccc(NC(=O)CC(F)(F)F)n2)c2ccccc2)n(C)c1=O [Example 151] |  | 2.66^[b]
26 | Cn1nc(C(=NOCc2cccc(NC(=O)c3cccs3)n2)c2ccccc2)n(C)c1=O [Example 152] |  | 2.82^[b]
27 | Cn1nc(C(=NOCc2cccc(NC(=O)CCC3CCCC3)n2)c2ccccc2)n(C)c1=O [Example 153] |  | 3.71^[b]
28 | Cn1ccnc1C(=NOCc1nccc(NC(=O)C2CC2)n1)c1ccccc1 [Example 154] |  | 1.5^[b]
29 | Cn1ccnc1C(=NOCc1nccc(NC(=O)Cc2ccccc2)n1)c1ccccc1 [Example 155] |  | 2.01^[b]
30 | Cn1cnnc1C(=NOCc1cccc(N)n1)c1ccccc1 [Example 156] |  | 0.88^[b]
31 | CCCCCOC(=O)Nc1cccc(CON=C(c2ccccc2)c2nncn2C)n1 [Example 157] |  | 3.29^[b]
32 | Cn1cnnc1C(=NOCc1cccc(NC(=O)Cc2ccccc2)n1)c1ccccc1 [Example 158] |  | 2.56^[b]
33 | CC(C)COC(=O)Nc1cccc(CON=C(c2ccccc2)c2nncn2C)n1 [Example 159] |  | 2.88^[b]
34 | Cn1cnnc1C(=NOCc1cccc(NC(=O)CC(F)(F)F)n1)c1ccccc1 [Example 160] |  | 2.28^[b]
35 | Cn1ncnc1C(=NOCc1cccc(CN2C(=O)c3ccccc3C2=O)n1)c1ccccc1 [Example 161] |  | 2.9^[b]
36 | Cn1ncnc1C(=NOCc1cccc(CN)n1)c1ccccc1 [Example 162] |  | 0.99^[b]
37 | Cc1cccc(C(=NOCc2cccc(N)n2)c2ncnn2C)c1 [Example 164] |  | 1.08^[b]
38 | Cn1nncc1C(=NOCc1csc(N)n1)c1ccccc1 [Example 165] |  | 1.29^[b]
39 | Cn1ccnc1C(=NOCc1nccc(NC(=O)C(C(=O)Cc2ccccc2)c2ccccc2)n1)c1ccccc1 (stereo not shown) [Example 166] |  | 2.59^[b]
40 | Cn1cnnc1C(=NOCc1cccc(NC(=O)C(C)(C)C)n1)c1ccccc1 [Example 167] |  | 2.44^[b]

Row | Structure (SMILES) | log p [1] | log p [2]
41 | Cc1nc(C(=NOCc2cccc(NC(=O)C(C)(C)C)n2)c2ccccc2)cs1 [Example 172] |  | 3.56^[b]
42 | Cn1nc(C(F)(F)F)nc1C(=NOCc1cccc(NC(=O)Cc2ccccc2)n1)c1ccccc1 [Example 175] |  | 4.24^[b]
43 | Cn1nc(C(F)(F)F)nc1C(=NOCc1cccc(NC(=O)CCc2ccccc2)n1)c1ccccc1 [Example 176] |  | 4.49^[b]
44 | CC(C)CC(=O)Nc1cccc(CON=C(c2ccccc2)c2nc(C(F)(F)F)nn2C)n1 [Example 177] |  | 4.24^[b]
45 | Cn1nc(C(F)(F)F)nc1C(=NOCc1cccc(NC(=O)C(C)(C)C)n1)c1ccccc1 [Example 178] |  | 4.31^[b]
46 | CCCCCOC(=O)Nc1cccc(CON=C(c2ccccc2)c2nc(C(F)(F)F)nn2C)n1 [Example 179] |  | 5.2^[b]
47 | CC(C)COC(=O)Nc1cccc(CON=C(c2ccccc2)c2nc(C(F)(F)F)nn2C)n1 [Example 180] |  | 4.78^[b]
48 | Cn1nc(C(F)(F)F)nc1C(=NOCc1cccc(N)n1)c1ccccc1 [Example 181] |  | 1.97^[b]
49 | CCCCCC(=O)Nc1cccc(CON=C(c2ccccc2)c2nc(C(F)(F)F)nn2C)n1 [Example 182] |  | 4.67^[b]
50 | Cn1nc(C(F)(F)F)nc1C(=NOCc1cccc(N2C(=O)c3ccccc3C2=O)n1)c1ccccc1 [Example 183] |  | 3.99^[b]
51 | Cn1nc(C(F)(F)F)nc1C(=NOCc1cccc(NC(=O)C2CCCC2)n1)c1ccccc1 [Example 184] |  | 4.41^[b]
52 | CC(=O)OCCCCOC(=O)Nc1cccc(CON=C(c2ccccc2)c2nc(C(F)(F)F)nn2C)n1 [Example 185] |  | 4.11^[b]
53 | Cc1cc(C(F)(F)F)nn1CC(=O)Nc1cccc(CON=C(c2ccccc2)c2nc(C(F)(F)F)nn2C)n1 [Example 186] |  | 4.31^[b]
54 | CCCCCOC(=O)Nc1cccc(CON=C(c2ccccc2)c2csc(C)n2)n1 [Example 187] |  | 4.51^[b]
55 | Cn1c(C(=NOCc2cccc(N3C(=O)c4ccccc4C3=O)n2)c2ccccc2)nnc1C(F)(F)F [Example 192] |  | 3.31^[b]
56 | Cc1ncc(C(=NOCc2cccc(N3C(=O)c4ccccc4C3=O)n2)c2ccccc2)n1C [Example 194] |  | 1.84^[b]
57 | CCCCCOC(=O)Nc1cccc(CON=C(c2ccccc2)c2csc(C)n2)n1 [Example 195] |  | 4.92^[b]
58 | CCCCCC(=O)Nc1cccc(CON=C(c2ccccc2)c2nnc(C(F)(F)F)n2C)n1 [Example 196] |  | 3.94^[b]
